Tests used:
barnyardgrass = assay: Test A barnyardgrass; type: in vivo, Echinochloa crus-galli; settings: 0 to 10 scale where 0 is no effect and 10 is complete control
Method: (§1) Seeds of barnyardgrass (Echinochloa crus-galli), crabgrass (Digitaria spp.), morningglory (Ipomoea spp.), and velvetleaf (Abutilon theophrasti) were planted into a sandy loam soil and treated preemergence by soil drench with test chemicals formulated in a non-phytotoxic solvent mixture which includes a surfactant At the same time, these crop and weed species were also treated postemergence sprayed to runoff, with test chemicals formulated in the same manner.
(§2) Plants ranged in height from two to eighteen cm and were in the one to two leaf stage for the postemergence treatment. Treated plants and untreated controls were maintained in a greenhouse for approximately eleven days, after which all treated plants were compared to untreated controls and visually evaluated for injury. Plant response ratings, summarized in Table A, are based on a 0 to 10 scale where 0 is no effect and 10 is complete control.

crabgrass [1] = assay: Test A crabgrass; type: in vivo, Digitaria spp.; settings: 0 to 10 scale where 0 is no effect and 10 is complete control
Method: as §1, §2

morningglory [2] = assay: Test A morningglory; type: in vivo, Ipomoea spp.; settings: 0 to 10 scale where 0 is no effect and 10 is complete control
Outline: (§3)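 Injury scored visually after about eleven greenhouse days against untreated plants, 0 = no effect, 10 = complete control. Compounds, formulated in surfactant-containing non-phytotoxic solvent, were applied as preemergence soil drench to sandy loam plantings and as postemergence runoff spray at the 1–2 leaf stage.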

velvetleaf [3] = assay: Test A velvetleaf; type: in vivo, Abutilon theophrasti; settings: 0 to 10 scale where 0 is no effect and 10 is complete control
Outline: as §3

bedstraw = assay: Test B pre/postemergence bedstraw; type: in vivo, Galium aparine; settings: Preemergence
Outline: (§4)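 Test chemicals in a non-phytotoxic solvent mixture with surfactant were sprayed preemergence onto planted seeds and postemergence onto plants 2 to 18 cm tall (1- to 4-leaf stage). After twelve to sixteen days in a greenhouse, injury was visually rated against untreated controls from 0 (no effect) to 10 (complete control).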

blackgrass = assay: Test B pre/postemergence blackgrass; type: in vivo, Alopecurus myosuroides; settings: Preemergence
Outline: as §4

surinam grass = assay: Test B pre/postemergence surinam grass; type: in vivo, Brachiaria decumbens; settings: Preemergence
Outline: as §4

cocklebur = assay: Test B pre/postemergence cocklebur; type: in vivo, Xanthium strumarium; settings: Preemergence
Outline: as §4

corn = assay: Test B pre/postemergence corn; type: in vivo, Zea mays; settings: Preemergence
Outline: as §4

crabgrass [4] = assay: Test B pre/postemergence crabgrass; type: in vivo, Digitaria sanguinalis; settings: Preemergence
Outline: as §4

giant foxtail = assay: Test B pre/postemergence giant foxtail; type: in vivo, Setaria faberii; settings: Preemergence
Outline: as §4

morningglory [5] = assay: Test B pre/postemergence morningglory; type: in vivo, Ipomoea hederacea; settings: Preemergence
Outline: as §4

pigweed = assay: Test B pre/postemergence pigweed; type: in vivo, Amaranthus retroflexus; settings: Preemergence
Outline: as §4

rape = assay: Test B pre/postemergence rape; type: in vivo, Brassica napus; settings: Preemergence
Outline: as §4

soybean = assay: Test B pre/postemergence soybean; type: in vivo, Glycine max; settings: Preemergence
Outline: as §4

sugar beet = assay: Test B pre/postemergence sugar beet; type: in vivo, Beta vulgaris; settings: Preemergence
Outline: as §4

velvetleaf [6] = assay: Test B pre/postemergence velvetleaf; type: in vivo, Abutilon theophrasti; settings: Preemergence
Outline: as §4

wheat = assay: Test B pre/postemergence wheat; type: in vivo, Triticum aestivum; settings: Preemergence
Outline: as §4

wild oat = assay: Test B pre/postemergence wild oat; type: in vivo, Avena fatua; settings: Preemergence
Outline: as §4

purple nutsedge = assay: Test B pre/postemergence purple nutsedge; type: in vivo, Cyperus rotundus; settings: Preemergence
Outline: as §4

rice = assay: Test B flood test rice; type: in vivo, Oryza sativa
Outline: (§5)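 Read-out is a visual response score from 0 (no effect) to 10 (complete control), assigned by comparison with untreated controls. Treatment was applied at the 2-leaf stage, and plants stayed in the greenhouse for twelve to sixteen days before scoring.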

smallflower flatsedge = assay: Test B flood test smallflower flatsedge; type: in vivo, Cyperus difformis
Outline: as §5

duck salad = assay: Test B flood test duck salad; type: in vivo, Heteranthera limosa
Outline: as §5

bamyardgrass = assay: Test B flood test barnyardgrass; type: in vivo, Echinochloa crus-galli
Outline: as §5

[7] = Rate 62 g/ha, scale of 0 to 10 where 0 is no effect and 10 is complete control
[8] = Rate 125 g/ha, scale of 0 to 10 where 0 is no effect and 10 is complete control
[9] = Rate 250 g/ha, scale 0 (no effect) to 10 (complete control)
[10] = Rate 500 g/ha, scale of 0 to 10 where 0 is no effect and 10 is complete control
[11] = Pre-emergence, Rate 62 g/ha, scale 0 to 10, 0 is no effect, 10 is complete control
[12] = Rate 125 g/ha, Pre-emergence section (flood test species), scale 0 to 10, 0 no effect, 10 complete control
[13] = Rate 250 g/ha, Pre-emergence (flood test species), scale 0 to 10, 0 is no effect, 10 is complete control
[14] = Rate 500 g/ha, Pre-emergence section of Table B, 0 to 10 scale (0 no effect, 10 complete control)

## CC(C)N(C(=O)n1oc(=O)[nH]c1=O)c1ccc(Cl)cc1 [Compound 377]
barnyardgrass; Postemergence, Rate 1000 g/ha
  Plant response rating, Barnyardgrass: 0
barnyardgrass; Pre-emergence, Rate 2000 g/ha
  Plant response rating, Barnyardgrass: 0
Crabgrass [1]; Postemergence, Rate 1000 g/ha
  Plant response rating, Crabgrass: 0
Crabgrass [1]; Pre-emergence, Rate 2000 g/ha
  Plant response rating, Crabgrass: 0
Morningglory [2]; Postemergence, Rate 1000 g/ha
  Plant response rating, Morningglory: 0
Morningglory [2]; Pre-emergence, Rate 2000 g/ha
  Plant response rating, Morningglory: 0
Velvetleaf [3]; Postemergence, Rate 1000 g/ha
  Plant response rating, Velvetleaf: 0
Velvetleaf [3]; Pre-emergence, Rate 2000 g/ha
  Plant response rating, Velvetleaf: 0

## CC(C)N(C(=O)n1oc(=O)n(CC2=NOCC2)c1=O)c1ccccc1 [Compound 706]
bedstraw; [7]
  Bedstraw plant response rating: 0
bedstraw; [8]
  Plant response rating, Bedstraw: 0
bedstraw; [9]
  Bedstraw plant response rating: 0
blackgrass; [7]
  Blackgrass plant response rating: 8
blackgrass; [8]
  Plant response rating, Blackgrass: 8
blackgrass; [9]
  Blackgrass plant response rating: 10
blackgrass; [10]
  Plant response rating, Blackgrass: 10
Surinam grass; [7]
  B. signalgrass plant response rating: 2
Surinam grass; [8]
  Plant response rating, B. signalgrass: 8
Surinam grass; [9]
  B. signalgrass plant response rating: 8
Surinam grass; [10]
  Plant response rating, B. signalgrass: 10
cocklebur; [7]
  Cocklebur plant response rating: 0
cocklebur; [8]
  Plant response rating, Cocklebur: 0
cocklebur; [9]
  Cocklebur plant response rating: 0
cocklebur; [10]
  Plant response rating, Cocklebur: 0
corn; [7]
  Corn plant response rating: 0
corn; [8]
  Plant response rating, Corn: 0
corn; [9]
  Corn plant response rating: 0
Crabgrass [4]; [7]
  Crabgrass plant response rating: 5
Crabgrass [4]; [8]
  Plant response rating, Crabgrass: 5
Crabgrass [4]; [9]
  Crabgrass plant response rating: 8
Giant foxtail; [7]
  Giant foxtail plant response rating: 6
Giant foxtail; [8]
  Plant response rating, Giant foxtail: 6
Giant foxtail; [9]
  Giant foxtail plant response rating: 7
Morningglory [5]; [7]
  Morningglory plant response rating: 1
Morningglory [5]; [8]
  Plant response rating, Morningglory: 1
Morningglory [5]; [9]
  Morningglory plant response rating: 1
pigweed; [7]
  Redroot pigweed plant response rating: 8
pigweed; [8]
  Plant response rating, Redroot pigweed: 8
pigweed; [9]
  Redroot pigweed plant response rating: 10
rape; [7]
  Rape plant response rating: 0
rape; [8]
  Plant response rating, Rape: 0
rape; [9]
  Rape plant response rating: 3
soybean; [7]
  Soybean plant response rating: 0
soybean; [8]
  Plant response rating, Soybean: 0
soybean; [9]
  Soybean plant response rating: 0
Sugar beet; [7]
  Sugarbeets plant response rating: 0
Sugar beet; [8]
  Plant response rating, Sugarbeets: 4
Sugar beet; [9]
  Sugarbeets plant response rating: 4
Velvetleaf [6]; [7]
  Velvetleaf plant response rating: 0
Velvetleaf [6]; [8]
  Plant response rating, Velvetleaf: 1
Velvetleaf [6]; [9]
  Velvetleaf plant response rating: 5
wheat; [7]
  Wheat plant response rating: 0
wheat; [8]
  Plant response rating, Wheat: 4
wheat; [9]
  Wheat plant response rating: 5
Wild oat; [7]
  Wild oats plant response rating: 4
Wild oat; [8]
  Plant response rating, Wild oats: 7
Wild oat; [9]
  Wild oats plant response rating: 8
Purple nutsedge; [7]
  Nutsedge plant response rating: 0
Purple nutsedge; [9]
  Nutsedge plant response rating: 0
rice; [11]
  Rice plant response rating: 0
rice; [12]
  Rice plant response rating: 0
rice; [13]
  Rice plant response rating: 0
rice; [14]
  Rice plant response rating: 0
Smallflower flatsedge; [11]
  S. Flatsedge plant response rating: 0
Smallflower flatsedge; [12]
  S. Flatsedge plant response rating: 0
Smallflower flatsedge; [13]
  S. Flatsedge plant response rating: 0
Smallflower flatsedge; [14]
  S. Flatsedge plant response rating: 0
Duck salad; [11]
  Ducksalad plant response rating: 0
Duck salad; [12]
  Ducksalad plant response rating: 0
Duck salad; [13]
  Ducksalad plant response rating: 0
Duck salad; [14]
  Ducksalad plant response rating: 0
bamyardgrass; [11]
  Barnyardgrass plant response rating: 0
bamyardgrass; [12]
  Barnyardgrass plant response rating: 0
bamyardgrass; [13]
  Barnyardgrass plant response rating: 0
bamyardgrass; [14]
  Barnyardgrass plant response rating: 0
